Reference: the supplement of paper PMC11061612

Key:
Assay in all cases: combination Emax (second highest fraction inhibited in the dose matrix, 72 h); higher = more inhibition; extreme values may be limits of the assay
[1] = tested on: NCI-H716 (Colorectal Carcinoma)
Procedure, shortened: (§1)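 Bliss excess equals the observed combination effect minus the expected value EA + EB − EA·EB, where EA and EB are the effects of each agent alone. Combination Emax is the second-highest inhibition within the matrix. Inhibition was scaled from CellTiter-Glo 2.0 luminescence, with 0 set by vehicle wells and 1 by blank wells, after 72 hours of two-drug dosing of cells plated in 1536-well plates.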

[2] = tested on: A253 (Head and Neck Carcinoma)
Procedure, shortened: as §1

[3] = tested on: ESO26 (Esophageal Adenocarcinoma)
Procedure, shortened: as §1

PEO1 (Ovarian Carcinoma) = tested on: PEO1 (Ovarian Carcinoma)
Procedure, shortened: as §1

[4] = tested on: CAL-27 (Oral Cavity Carcinoma)
Procedure, shortened: as §1

[5] = tested on: EPLC-272H (Other Solid Carcinomas)
Procedure, shortened: as §1

[6] = tested on: NCI-H2228 (Lung Adenocarcinoma)
Procedure, shortened: as §1

A101D (Melanoma) = tested on: A101D (Melanoma)
Procedure, shortened: as §1

[7] = tested on: NCI-H1703 (Squamous Cell Lung Carcinoma)
Procedure, shortened: as §1

[8] = tested on: NCI-H2087 (Lung Adenocarcinoma)
Procedure, shortened: as §1

[9] = tested on: KYSE-220 (Esophageal Squamous Cell Carcinoma)
Procedure, shortened: as §1

[10] = tested on: huH-1 (Hepatocellular Carcinoma)
Procedure, shortened: as §1

AU565 (Breast Carcinoma) = tested on: AU565 (Breast Carcinoma)
Procedure, shortened: as §1

A204 (Rhabdomyosarcoma) = tested on: A204 (Rhabdomyosarcoma)
Procedure, shortened: as §1

[11] = tested on: OACp4C (Esophageal Adenocarcinoma)
Procedure, shortened: as §1

5637 (Bladder Carcinoma) = tested on: 5637 (Bladder Carcinoma)
Procedure, shortened: as §1

EW-7 (Ewing's Sarcoma) = tested on: EW-7 (Ewing's Sarcoma)
Procedure, shortened: as §1

[12] = tested on: HT55 (Colorectal Carcinoma)
Procedure, shortened: as §1

[13] = tested on: JHU-022 (Oral Cavity Carcinoma)
Procedure, shortened: as §1

[14] = tested on: UACC-812 (Breast Carcinoma)
Procedure, shortened: as §1

Row | Compound | combination Emax [1] | combination Emax [2] | combination Emax [3] | combination Emax (PEO1 (Ovarian Carcinoma)) | combination Emax [4] | combination Emax [5] | combination Emax [6] | combination Emax (A101D (Melanoma)) | combination Emax [7] | combination Emax [8] | combination Emax [9] | combination Emax [10] | combination Emax (AU565 (Breast Carcinoma)) | combination Emax (A204 (Rhabdomyosarcoma)) | combination Emax [11] | combination Emax (5637 (Bladder Carcinoma)) | combination Emax (EW-7 (Ewing's Sarcoma)) | combination Emax [12] | combination Emax [13] | combination Emax [14]
1 | CN(C)CCCOc1ccc(-c2ccc3ncc4c(c3c2)n(C2CCOCC2)c(=O)n4C)cn1 [AZD0156] + C=CCn1c(=O)c2cnc(Nc3ccc(N4CCN(C)CC4)cc3)nc2n1-c1cccc(C(C)(C)O)n1 [AZD1775] (first compound max 1 µM, partner max 1 µM) | 0.482 | 0.327 | 0.458 | 0.341 | 0.376 | 0.771 | 0.5 | 0.495 | 0.967 | 0.332 | 0.812 | 0.592 | 0.454 | 0.27 | 0.83 | 0.745 | 0.884 | 0.407 | 0.36 | 0.156
2 | Cc1c2c(nn1C)CSCc1cc(n(C)n1)CSc1cc(c3ccccc3c1)OCCCc1c(C(=O)O)n(C)c3c-2c(Cl)ccc13 [AZD5991] + CC1(C)CCC(CN2CCN(c3ccc(C(=O)NS(=O)(=O)c4ccc(NCC5CCOCC5)c([N+](=O)[O-])c4)c(Oc4cnc5[nH]ccc5c4)c3)CC2)=C(c2ccc(Cl)cc2)C1 [Venetoclax] (first compound max 1 µM, 7x7, partner max 1 µM) | 0.176 | 0.868 | 0.151 | 0.164 | 0.955 | 0.901 | 0.184 | 0.989 | – | 0.153 | 0.181 | 0.162 | 1 | 0.513 | 0.74 | 0.217 | 0.487 | 0.13 | 0.116 | 0.694
3 | NC1(C(=O)N[C@@H](CCO)c2ccc(Cl)cc2)CCN(c2ncnc3[nH]ccc23)CC1 [Capivasertib] + CC(=O)c1c(C)c2cnc(Nc3ccc(N4CCNCC4)cn3)nc2n(C2CCCC2)c1=O [Palbociclib] (first compound max 10 µM, 7x7, partner max 10 µM) | 0.49 | 0.673 | 0.498 | 0.415 | 0.69 | 0.891 | 0.506 | 0.581 | 0.609 | 0.244 | 0.712 | 0.374 | 0.505 | 0.517 | 0.858 | 0.387 | 0.657 | 0.607 | 0.471 | –
4 | NC1(C(=O)N[C@@H](CCO)c2ccc(Cl)cc2)CCN(c2ncnc3[nH]ccc23)CC1 [Capivasertib] + CC(C)n1c(=O)n(C)c2cnc3cc(F)c(-c4ccc(OCCCN5CCCCC5)nc4)cc3c21 [AZD1390] (first compound max 10 µM, 7x7, partner max 0.3 µM) | 0.45 | 0.559 | 0.449 | 0.32 | 0.321 | 0.632 | 0.46 | 0.46 | 0.548 | 0.206 | 0.49 | 0.299 | 0.535 | 0.382 | 0.818 | 0.336 | 0.587 | 0.381 | 0.413 | –
5 | NC1(C(=O)N[C@@H](CCO)c2ccc(Cl)cc2)CCN(c2ncnc3[nH]ccc23)CC1 [Capivasertib] + CCN(CCO)CCCOc1ccc2c(Nc3cc(CC(=O)Nc4cccc(F)c4)[nH]n3)ncnc2c1 [AZD2811] (first compound max 10 µM, 7x7, partner max 1 µM) | 0.457 | 0.695 | 0.52 | 0.418 | 0.646 | 0.708 | 0.533 | 0.552 | 0.678 | 0.256 | 0.623 | 0.384 | 0.819 | 0.489 | 0.897 | 0.572 | 0.885 | 0.576 | 0.446 | –
6 | NC1(C(=O)N[C@@H](CCO)c2ccc(Cl)cc2)CCN(c2ncnc3[nH]ccc23)CC1 [Capivasertib] + COc1nnc2ccc(N3CCC(c4ccc(OCCN5CCN(C)C(=O)[C@H]5C)cc4)CC3)nn12 [AZD5153] (first compound max 10 µM, 7x7, partner max 1 µM) | 0.616 | 0.75 | 0.753 | 0.453 | 0.833 | 0.944 | 0.52 | 0.66 | 0.733 | 0.301 | 0.838 | 0.358 | 0.664 | 0.517 | 0.905 | 0.627 | 0.828 | 0.572 | 0.486 | –
7 | NC1(C(=O)N[C@@H](CCO)c2ccc(Cl)cc2)CCN(c2ncnc3[nH]ccc23)CC1 [Capivasertib] + C[C@@H]1COCCN1C2=NC(=NC(=C2)C3(CC3)[S@](=N)(=O)C)C4=C5C=CNC5=NC=C4 [AZD6738] (first compound max 10 µM, 7x7, partner max 10 µM) | 0.555 | 0.852 | 0.599 | 0.616 | 0.58 | 0.885 | 0.575 | 0.803 | 0.928 | 0.486 | 0.869 | 0.692 | 0.684 | 0.467 | 0.979 | 0.564 | 1 | 0.545 | 0.631 | –
8 | NC1(C(=O)N[C@@H](CCO)c2ccc(Cl)cc2)CCN(c2ncnc3[nH]ccc23)CC1 [Capivasertib] + Cn1cnc2c(F)c(Nc3ccc(Br)cc3Cl)c(C(=O)NOCCO)cc21 [Selumetinib] (first compound max 10 µM, 7x7, partner max 10 µM) | 0.783 | 0.89 | 0.523 | 0.56 | 0.815 | 0.982 | 0.58 | 0.785 | 0.606 | 0.539 | 0.763 | 0.464 | 0.64 | 0.498 | 0.987 | 0.395 | 0.682 | 0.767 | 0.576 | –
9 | CS(=O)(=O)CCNCc1ccc(-c2ccc3ncnc(Nc4ccc(OCc5cccc(F)c5)c(Cl)c4)c3c2)o1 [Lapatinib] + C[C@@H](Oc1cc(-c2cnn(C3CCNCC3)c2)cnc1N)c1c(Cl)ccc(F)c1Cl [Crizotinib] (first compound max 10 µM, 7x7, partner max 10 µM) | 0.837 | 0.907 | 0.854 | 0.718 | 0.958 | 0.959 | 0.769 | 0.971 | 0.746 | 0.395 | 0.994 | 0.671 | 0.959 | 0.498 | 1 | 1 | 0.956 | 0.931 | 0.943 | –
10 | CC(=O)c1c(C)c2cnc(Nc3ccc(N4CCNCC4)cn3)nc2n(C2CCCC2)c1=O [Palbociclib] + CC1(C)CCC(CN2CCN(c3ccc(C(=O)NS(=O)(=O)c4ccc(NCC5CCOCC5)c([N+](=O)[O-])c4)c(Oc4cnc5[nH]ccc5c4)c3)CC2)=C(c2ccc(Cl)cc2)C1 [Venetoclax] (first compound max 10 µM, 7x7, partner max 1 µM) | 0.475 | 0.0236 | 0.112 | 0.194 | 0.0994 | 0.243 | 0.238 | 0.424 | 0.486 | 0.0514 | 0.189 | 0.119 | 0.262 | 0.308 | 0.217 | 0.231 | 0.409 | 0.478 | 0.105 | –
11 | CC(=O)c1c(C)c2cnc(Nc3ccc(N4CCNCC4)cn3)nc2n(C2CCCC2)c1=O [Palbociclib] + Cc1c2c(nn1C)CSCc1cc(n(C)n1)CSc1cc(c3ccccc3c1)OCCCc1c(C(=O)O)n(C)c3c-2c(Cl)ccc13 [AZD5991] (first compound max 10 µM, 7x7, partner max 1 µM) | 0.356 | 0.635 | 0.63 | 0.329 | 0.914 | 0.822 | 0.247 | 0.588 | 0.815 | 0.218 | 0.305 | 0.236 | 0.998 | 0.37 | 0.46 | 0.197 | 0.494 | 0.506 | 0.167 | –
12 | CC(=O)c1c(C)c2cnc(Nc3ccc(N4CCNCC4)cn3)nc2n(C2CCCC2)c1=O [Palbociclib] + Cn1cnc2c(F)c(Nc3ccc(Br)cc3Cl)c(C(=O)NOCCO)cc21 [Selumetinib] (first compound max 10 µM, 7x7, partner max 10 µM) | 0.539 | 0.189 | 0.299 | 0.295 | 0.627 | 0.7 | 0.335 | 0.588 | 0.584 | 0.501 | 0.66 | 0.167 | 0.277 | 0.399 | 0.557 | 0.345 | 0.669 | 0.755 | 0.54 | –
13 | CCc1c2c(nc3ccc(O)cc13)-c1cc3c(c(=O)n1C2)COC(=O)[C@]3(O)CC [SN-38] + O=C(c1cc(Cc2n[nH]c(=O)c3ccccc23)ccc1F)N1CCN(C(=O)C2CC2)CC1 [Olaparib] (first compound max 0.3 µM, 7x7, partner max 10 µM) | – | 0.938 | 0.764 | 0.725 | – | 0.856 | – | 0.757 | 0.882 | 0.909 | 0.99 | 0.794 | 0.891 | – | 0.637 | – | 0.908 | 0.489 | 0.764 | 0.504
